In US20050175550A1, “Compositions for oral use” (priority 2000, published 2005) one finds MIC data, which are given here for one compound.

Holding throughout (assay): MIC by agar plate dilution method on standard strains (Example 3)
Holding throughout (type): cell-based
What all share (details): read-out: MIC

Assay [1] concerns Streptococcus pyogenes ATCC12344. On the procedure:
(§1) Drug solutions at a concentration 10 times as high as the maximum applicable concentration were prepared as original solutions of test drugs given in Table 2 (as to solvents used for this purpose, reference should be made also to Table 2). Serial two-fold dilution series of the original solutions were prepared at desired stages, and 1 ml each of the diluted drug solutions was added to 9 ml of media given in Table 3 to prepare drug plates. […] • 1) Bacterial solutions stocked at −80° C. were inoculated on agar media (as to media used, reference should be made to Table 3), and then incubated at 37° C. overnight. When desired, subculturing was conducted once more on the same agar media (by overnight incubation at 37° C.). • 2) Colonies growing on the agar media were sampled by a platinum loop, suspended in liquid media (reference should be made to Table 3) and statically incubated at 37° C. for 18 hours (preculturing). • 3) Preculturing was continued up to McFarland 0.5 (McFarland 0.5=about 10^8 CFU/ml), and then the culture broths were diluted with Muellar Hinton Broth to make 10^6 CFU/ml. 5 μl each of the diluted solutions were inoculated on the above-mentioned drug plates by an inoculator Microplanter. […] Thus, bacterial solutions at about 10^8 CFU/ml can be easily prepared by use of McFarland 0.5. Bacterial solutions at such a turbidity are commercially available, but can be easily prepared.

In assay [2] the test system is Moraxella (Branhamella) catarrhalis ATCC25238. The method, then: as §1
In assay [3] the test system is Moraxella (Branhamella) catarrhalis ATCC25240. The method, then:
as §1

The subject of assay [4] is Enterococcus faecium ATCC19434. The method, then: as §1
The subject of assay [5] is Haemophilus influenzae ATCC33533. The method, then:
as §1

Assay [6] has as its system Klebsiella pneumoniae ATCC700603. The method, then: as §1
The subject of assay [7] is Moraxella (Branhamella) catarrhalis ATCC43617. The method, then:
as §1

For assay [8], the system named is Streptococcus pneumoniae ATCC6306. On the procedure: as §1
Assay [9] has as its system Escherichia coli ATCC35218. The method, then:
as §1

Assay [10] has as its system Bacillus subtilis ATCC6633. On the procedure: as §1
Assay [11] has as its system Streptococcus pneumoniae ATCC6303. The method, then:
as §1

The subject of assay [12] is Staphylococcus aureus ATCC6538P. The method, then:
as §1

Assay [13] deals with Streptococcus pneumoniae ATCC49619. The method, then:
as §1

Assay [14] deals with Enterococcus faecalis ATCC29247. On the procedure: as §1
Assay [15] has as its system Streptococcus pyogenes ATCC12385. The method, then:
as §1

SMILES strings stand for the structures. ≈ marks a conversion by molar mass, not a printed value.

With `CC[C@H]1OC(=O)[C@H](C)[C@@H](O[C@H]2C[C@@](C)(OC)[C@@H](O)[C@H](C)O2)[C@H](C)[C@@H](O[C@@H]2O[C@H](C)C[C@H](N(C)C)[C@H]2O)[C@](C)(OC)C[C@@H](C)C(=O)[C@H](C)[C@@H](O)[C@]1(C)O` [CAM, Clarithromycin], the MIC was 0.05 µg/mL (≈ 0.0668 µM) in assay [1]; 0.1 µg/mL (≈ 0.134 µM) in [2]; 0.2 µg/mL (≈ 0.267 µM) in assay [3]; 1.56 µg/mL (≈ 2.09 µM) in assay [4]; 3.13 µg/mL (≈ 4.18 µM) in assay [5]; greater than 100 µg/mL in [6]. For the same compound, the MIC in assay [7] is 0.2 µg/mL (≈ 0.267 µM); in [8], 0.1 µg/mL (≈ 0.134 µM); in [9], 25 µg/mL (≈ 33.4 µM); in [10] it was 0.1 µg/mL (≈ 0.134 µM); in [11], 0.05 µg/mL (≈ 0.0668 µM); in [12], 0.2 µg/mL (≈ 0.267 µM). For the same compound, the values for the MIC in assay [13], in assay [14] and in assay [15] were 0.05 µg/mL (≈ 0.0668 µM), 1.56 µg/mL (≈ 2.09 µM) and 0.1 µg/mL (≈ 0.134 µM), respectively.
